Test results taken from patent US7585875B2, “Substituted pyrazolo[1,5-a]pyridine compounds and their methods of use” (Avigen, Inc., priority 2006, dated 2009).
Read-outs that look alike come from different tables or passages of the source.

Key:
[1] = system: mechanical allodynia after chronic constriction injury (CCI) to the sciatic nerve; test: Mechanical allodynia by response to von Frey fibers, rat chronic constriction injury (CCI) model; format: in vivo, male Sprague-Dawley rats; details: 10 mg/kg IP, 2 hr post dosing
Summary of the method: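 Male Sprague-Dawley rats with unilateral CCI (four loose ligatures around the right sciatic nerve; left side sham). 50% paw withdrawal threshold to von Frey filaments was measured blinded before and 2 h after a single i.p. dose (n=5-6). Value is the change from pre-dosing baseline.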

[2] = system: TNF-α production in LPS-stimulated human peripheral blood mononuclear cells; test: Inhibition of LPS-stimulated TNF-α release from PBMCs; format: cell-based; details: PBMC
Description: (§1) IC50 values were determined for representative compounds of the invention based upon their ability to inhibit LPS-induced cytokine production in human peripheral blood mononuclear cells. Human PBMCs (peripheral blood mononuclear cells) were isolated over a Ficoll gradient from buffy coats obtained from the local Red Cross. 10^6 PBMC cells/well were seeded in 24-well tissue culture plates in RPMI 1640 medium supplemented with 10% human serum, hepes buffer and sodium pyruvate. The cells were treated with 0.1% DMSO (vehicle) or test compounds (1, 10, and 100 uM) 30 minutes prior to activation with LPS (lipopolysaccharide) (E. Coli) at 10 ng/mL. 6-10 hours post LPS stimulation the culture supernatants were collected and levels of cytokines TNF-α and IL-1β were quantified by ELISA (R&D Systems) and/or Luminex (Linco Diagnostics). IC50 calculations were plotted using a nonlinear regression curve fit for exemplary substituted pyrazolo[1,5-a]pyridine compounds of the invention; results are provided in Table 2.

[3] = system: IL-1β production in LPS-stimulated human peripheral blood mononuclear cells; test: Inhibition of LPS-stimulated IL-1β release from PBMCs; format: cell-based; details: PBMC, LPS-stimulated cytokine release from PBMCs
Description: as §1

[4] = molecular target: phosphodiesterase (PDE) enzyme derived from bovine brain; test: Inhibition of PDE (PDELight kit, cAMP substrate); format: biochemical; details: PDE from brain extract, cAMP as substrate
Description: In a 96-well plate, phosphodiesterase (PDE) enzyme (0.5-1 mU/well) derived from bovine brain (Sigma) was combined with 5 uM cAMP substrate (Sigma). Test compounds (0-200 uM) or vehicle (0.5% DMSO) were added to the enzyme/substrate and incubated for 1 hour. Using a PDELight® kit (Cambrex), the amount of AMP produced in the reaction from the hydrolysis of cAMP was quantified using PDELight AMP Detection Reagent which converts the AMP directly to ATP. The assay uses luciferase, which catalyses the formation of light from the newly formed ATP and luciferin. The luminescence was read on a Victor Light 1420 luminometer. IC50 calculations were plotted using a nonlinear regression curve fit.

melting point: 41 to 43 °C
IC50 ([2]; LPS-stimulated cytokine release from PBMCs, read-out: TNF-α (IC50)): 13 µM
IC50 ([2]; less than or equal to about 50 μM, PBMCs, read-out: IC50, LPS-induced cytokine production (cytokine not specified)): ≤ 50 µM
IC50 [3]: > 100 µM
IC50 [4]: 58 µM
SMILES: CCC(=O)c1c(C(C)C)nn2ccccc12 [Compound 1001, 1-(2-isopropylpyrazolo[1,5-a]pyridin-3-yl)propan-1-one]
Mechanical Allodynia ΔWT (change from pre-dosing 50% withdrawal threshold) [1]: 0 grams
